Source: patent publication US6737383B1, “Herbicidal oxadiazolidines” (priority 1999, dated 2004)

What was measured:
rice = test: Test B flood test rice; format: in vivo, Oryza sativa
Outline: (§1)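 Flood test on plants grown to the 2-leaf stage; treated plants kept in greenhouse twelve to sixteen days, then visually rated against controls on a 0 (no effect) to 10 (complete control) scale.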

morningglory = test: Test B pre/postemergence morningglory; format: in vivo, Ipomoea hederacea
Outline: (§2)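 Test chemicals in a non-phytotoxic solvent mixture with surfactant were sprayed preemergence onto planted seeds and postemergence onto plants 2 to 18 cm tall (1- to 4-leaf stage). After twelve to sixteen days in a greenhouse, injury was visually rated against untreated controls from 0 (no effect) to 10 (complete control).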

wild oat = test: Test B pre/postemergence wild oat; format: in vivo, Avena fatua
Outline: as §2

pigweed = test: Test B pre/postemergence pigweed; format: in vivo, Amaranthus retroflexus
Outline: as §2

bamyardgrass = test: Test B flood test barnyardgrass; format: in vivo, Echinochloa crus-galli
Outline: as §1

surinam grass = test: Test B pre/postemergence surinam grass; format: in vivo, Brachiaria decumbens
Outline: as §2

crabgrass = test: Test B pre/postemergence crabgrass; format: in vivo, Digitaria sanguinalis
Outline: as §2

corn = test: Test B pre/postemergence corn; format: in vivo, Zea mays
Outline: as §2

purple nutsedge = test: Test B pre/postemergence purple nutsedge; format: in vivo, Cyperus rotundus
Outline: as §2

giant foxtail = test: Test B pre/postemergence giant foxtail; format: in vivo, Setaria faberii
Outline: as §2

rape = test: Test B pre/postemergence rape; format: in vivo, Brassica napus
Outline: as §2

cocklebur = test: Test B pre/postemergence cocklebur; format: in vivo, Xanthium strumarium
Outline: as §2

blackgrass = test: Test B pre/postemergence blackgrass; format: in vivo, Alopecurus myosuroides
Outline: as §2

wheat = test: Test B pre/postemergence wheat; format: in vivo, Triticum aestivum
Outline: as §2

sugar beet = test: Test B pre/postemergence sugar beet; format: in vivo, Beta vulgaris
Outline: as §2

[1] = Postemergence block (flood test species), Rate 250 g/ha, scale 0 to 10
[2] = Postemergence section (flood test species), Rate 500 g/ha, scale of 0 to 10 where 0 is no effect and 10 is complete control
[3] = Rate 125 g/ha, Postemergence section (flood test species), scale 0 to 10, 0 is no effect, 10 is complete control
[4] = Postemergence, Rate 250 g/ha, scale 0 to 10
[5] = Postemergence, Rate 500 g/ha, scale of 0 to 10 where 0 is no effect and 10 is complete control
[6] = Preemergence, Rate 62 g/ha, scale 0 to 10 (0 no effect, 10 complete control)
[7] = Preemergence, Rate 125 g/ha, scale of 0 to 10 where 0 is no effect and 10 is complete control
[8] = Preemergence, Rate 250 g/ha, scale 0 to 10, 0 is no effect, 10 is complete control
[9] = Preemergence, Rate 500 g/ha, scale 0 to 10, 0 is no effect, 10 is complete control
[10] = Rate 125 g/ha, Postemergence, scale 0 to 10, 0 is no effect, 10 is complete control
[11] = Rate 62 g/ha, Postemergence, scale of 0 to 10 where 0 is no effect and 10 is complete control

CCN(C(=O)n1oc(=O)n(C2CCCCCC2)c1=O)C1CCCCC1 [Compound 429]
10: Plant response rating, Crabgrass (crabgrass; [7]) | Crabgrass plant response rating (crabgrass; [8]) | Crabgrass plant response rating (crabgrass; [9]) | Plant response rating, Giant foxtail (giant foxtail; [7]) | Giant foxtail plant response rating (giant foxtail; [8]) | Giant foxtail plant response rating (giant foxtail; [9])
2: Morningglory plant response rating (morningglory; [4]) | Crabgrass plant response rating (crabgrass; [4]) | Giant foxtail plant response rating (giant foxtail; [4]) | Blackgrass plant response rating (blackgrass; [10])
7: Barnyardgrass plant response rating (bamyardgrass; [2]) | Plant response rating, Crabgrass (crabgrass; [6])
3: Morningglory plant response rating (morningglory; [5]) | Crabgrass plant response rating (crabgrass; [5]) | Plant response rating, Giant foxtail (giant foxtail; [6]) | Blackgrass plant response rating (blackgrass; [4]) | Blackgrass plant response rating (blackgrass; [5]) | Blackgrass plant response rating (blackgrass; [9])
0: Rice plant response rating (rice; [1]) | Rice plant response rating (rice; [2]) | Rice plant response rating (rice; [3]) | Plant response rating, Morningglory (morningglory; [6]) | Plant response rating, Morningglory (morningglory; [7]) | Morningglory plant response rating (morningglory; [8]) | Morningglory plant response rating (morningglory; [9]) | Wild oats plant response rating (wild oat; [4]) | Wild oats plant response rating (wild oat; [5]) | Plant response rating, Wild oats (wild oat; [6]) | Plant response rating, Wild oats (wild oat; [7]) | Wild oats plant response rating (wild oat; [8]) | Wild oats plant response rating (wild oat; [9]) | Wild oats plant response rating (wild oat; [10]) | Redroot pigweed plant response rating (pigweed; [4]) | Redroot pigweed plant response rating (pigweed; [5]) | Plant response rating, Redroot pigweed (pigweed; [6]) | Plant response rating, Redroot pigweed (pigweed; [7]) | Redroot pigweed plant response rating (pigweed; [8]) | Redroot pigweed plant response rating (pigweed; [9]) | Redroot pigweed plant response rating (pigweed; [10]) | Barnyardgrass plant response rating (bamyardgrass; Rate 62 g/ha, Postemergence (flood test species), scale of 0 to 10 where 0 is no effect and 10 is complete control) | Barnyardgrass plant response rating (bamyardgrass; [3]) | B. signalgrass plant response rating (surinam grass; Postemergence, Rate 250 g/ha, scale 0 to 10, 0 no effect, 10 complete control) | B. signalgrass plant response rating (surinam grass; [5]) | Plant response rating, B. signalgrass (surinam grass; [6]) | Plant response rating, B. signalgrass (surinam grass; [7]) | B. signalgrass plant response rating (surinam grass; [8]) | B. signalgrass plant response rating (surinam grass; [11]) | B. signalgrass plant response rating (surinam grass; [10]) | Crabgrass plant response rating (crabgrass; [11]) | Corn plant response rating (corn; [4]) | Corn plant response rating (corn; [5]) | Plant response rating, Corn (corn; [6]) | Plant response rating, Corn (corn; [7]) | Corn plant response rating (corn; [8]) | Corn plant response rating (corn; [9]) | Corn plant response rating (corn; [11]) | Corn plant response rating (corn; [10]) | Nutsedge plant response rating (purple nutsedge; [4]) | Nutsedge plant response rating (purple nutsedge; [5]) | Plant response rating, Nutsedge (purple nutsedge; [6]) | Plant response rating, Nutsedge (purple nutsedge; [7]) | Nutsedge plant response rating (purple nutsedge; [8]) | Nutsedge plant response rating (purple nutsedge; [9]) | Nutsedge plant response rating (purple nutsedge; [10]) | Giant foxtail plant response rating (giant foxtail; [11]) | Rape plant response rating (rape; [4]) | Rape plant response rating (rape; [5]) | Plant response rating, Rape (rape; [6]) | Plant response rating, Rape (rape; [7]) | Rape plant response rating (rape; [8]) | Rape plant response rating (rape; [9]) | Rape plant response rating (rape; [10]) | Cocklebur plant response rating (cocklebur; [4]) | Cocklebur plant response rating (cocklebur; [5]) | Plant response rating, Cocklebur (cocklebur; [6]) | Plant response rating, Cocklebur (cocklebur; [7]) | Cocklebur plant response rating (cocklebur; [8]) | Cocklebur plant response rating (cocklebur; [9]) | Cocklebur plant response rating (cocklebur; [11]) | Cocklebur plant response rating (cocklebur; [10]) | Plant response rating, Blackgrass (blackgrass; [6]) | Plant response rating, Blackgrass (blackgrass; [7]) | Blackgrass plant response rating (blackgrass; [8]) | Blackgrass plant response rating (blackgrass; [11]) | Wheat plant response rating (wheat; [4]) | Wheat plant response rating (wheat; [5]) | Plant response rating, Wheat (wheat; [6]) | Plant response rating, Wheat (wheat; [7]) | Wheat plant response rating (wheat; [8]) | Wheat plant response rating (wheat; [9]) | Wheat plant response rating (wheat; [10]) | Sugarbeets plant response rating (sugar beet; [4]) | Sugarbeets plant response rating (sugar beet; [5]) | Plant response rating, Sugarbeets (sugar beet; [6]) | Plant response rating, Sugarbeets (sugar beet; [7]) | Sugarbeets plant response rating (sugar beet; [8]) | Sugarbeets plant response rating (sugar beet; [9]) | Sugarbeets plant response rating (sugar beet; [10])
4: B. signalgrass plant response rating (surinam grass; [9]) | Giant foxtail plant response rating (giant foxtail; [5])
1: Morningglory plant response rating (morningglory; [10]) | Barnyardgrass plant response rating (bamyardgrass; [1]) | Crabgrass plant response rating (crabgrass; [10]) | Giant foxtail plant response rating (giant foxtail; [10])
